Results taken from ChEMBL document CHEMBL6087454, “Identification of Novel Organo-Se BTSA-Based Derivatives as Potent, Reversible, and Selective PPARγ Covalent Modulators for Antidiabetic Drug Discovery” (J Med Chem, 2025).
The source made the active and inactive calls. The calls are words filed in the database; no cut-off is given here.

What was measured:
[1] = biological target: T1, Peroxisome proliferator-activated receptor gamma (Homo sapiens, UniProt P37231); assay: Binding affinity to recombinant GST-tagged human PPAR-gamma ligand binding domain (E235 to Y505 residues) extracted from Escherichia coli BL21 (DE3) cells assessed as inhibition constant in presence of fluormone pan-PPAR green tracer by TR-FRET assay
T1 sequence (P37231 whole entry): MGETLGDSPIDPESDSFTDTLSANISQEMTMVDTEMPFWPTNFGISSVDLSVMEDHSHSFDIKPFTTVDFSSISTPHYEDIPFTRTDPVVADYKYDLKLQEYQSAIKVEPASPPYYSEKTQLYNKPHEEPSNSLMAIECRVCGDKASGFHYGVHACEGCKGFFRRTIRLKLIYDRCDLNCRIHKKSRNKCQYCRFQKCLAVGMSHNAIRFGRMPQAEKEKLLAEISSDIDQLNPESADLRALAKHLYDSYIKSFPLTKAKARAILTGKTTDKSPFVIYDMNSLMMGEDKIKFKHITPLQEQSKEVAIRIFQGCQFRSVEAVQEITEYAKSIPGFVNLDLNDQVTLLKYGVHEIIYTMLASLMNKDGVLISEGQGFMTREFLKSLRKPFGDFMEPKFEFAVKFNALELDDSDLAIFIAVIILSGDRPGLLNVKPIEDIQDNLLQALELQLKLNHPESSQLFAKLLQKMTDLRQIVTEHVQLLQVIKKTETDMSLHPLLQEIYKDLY

[2] = biological target: T1, Peroxisome proliferator-activated receptor gamma; assay: Displacement of fluormone pan-PPAR green from recombinant GST-tagged human PPAR-gamma ligand binding domain (E235 to Y505 residues) extracted from Escherichia coli BL21 (DE3) cells by TR-FRET assay
[3] = biological target: T2, Peroxisome proliferator-activated receptor gamma (Homo sapiens) (UniProt P37231); assay: Covalent binding affinity to recombinant PPAR-gamma ligand binding domain (unknown origin) at Cys285 residue at 0.4 uM incubated for 30 mins by rhodamine-maleimide staining based SDS-PAGE analysis
T2 sequence (whole entry): T1 sequence (P37231 whole entry)

[4] = Toxicity in male db/db mouse model assessed as increase in lipid accumulation in liver at 10 mg/kg/day, po administered for 4 weeks by Oil red O staining based analysis; type: organism-based; settings: in vivo, 672 h
[5] = Toxicity in male db/db mouse model assessed as increase in serum AST level at 10 mg/kg/day, po administered for 4 weeks by ELISA; type: organism-based; settings: in vivo, 672 h
[6] = Toxicity in male db/db mouse model assessed as increase in white adipocytes size at 10 mg/kg/day, po administered for 4 weeks by H and E staining based analysis; type: organism-based; settings: in vivo, 672 h
[7] = Toxicity in male db/db mouse model assessed as increase in blood triglyceride level at 10 mg/kg/day, po administered for 4 weeks by ELISA; type: organism-based; settings: in vivo, 672 h
[8] = Toxicity in male db/db mouse model assessed as hepatomegaly in liver at 10 mg/kg/day, po administered for 4 weeks; type: organism-based; settings: in vivo, 672 h
[9] = Toxicity in male db/db mouse model assessed as increase in serum ALT level at 10 mg/kg/day, po administered for 4 weeks by ELISA; type: organism-based; settings: in vivo, 672 h
[10] = Toxicity in male db/db mouse model assessed as increase in liver weight at 10 mg/kg/day, po administered for 4 weeks; type: organism-based; settings: in vivo, 672 h
[11] = Toxicity in male db/db mouse model assessed as increase in blood cholesterol level at 10 mg/kg/day, po administered for 4 weeks by ELISA; type: organism-based; settings: in vivo, 672 h
[12] = Toxicity in male db/db mouse model assessed as lipid accumulation in liver at 10 mg/kg/day, po administered for 4 weeks; type: organism-based; settings: in vivo, 672 h
3T3-L1 = assay: Induction of adipocyte differentiation in mouse 3T3-L1 cells assessed as lipid accumulation at 1 uM measured after 48 hrs in presence of 1-oxido-1-(4-(tosyloxy)phenyl)-1lambda4-benzo[d][1,3,2]thiaselenazol-5-yl 4-methylbenzenesulfonate by Oil red O staining based inverted microscopic analysis; type: functional, cell-based
[13] = Toxicity in male db/db mouse model assessed as increase in brown adipocytes size at 10 mg/kg/day, po administered for 4 weeks by H and E staining based analysis; type: organism-based; settings: in vivo, 672 h

Row | SMILES | Ki [1] [µM] | IC50 [2] [µM] | further results
1 | O=S1(c2ccc(Br)cc2)=N[Se]c2cc(Br)ccc21 (stereo not given) | 0.53 | 1.48 | 
2 | Cc1ccccc1S1(=O)=N[Se]c2cccc(C)c21 (stereo not given) | 14.1 | 39.3 | 
3 | CC(C)(C)c1ccc(S2(=O)=N[Se]c3cc(C(C)(C)C)ccc32)cc1 (stereo not given) | 0.45 | 1.24 | 
4 | O=S1(CCl)=N[Se]c2ccccc21 (stereo not given) | > 18 | > 50 | 
5 | O=S1(C2CC2)=N[Se]c2ccccc21 (stereo not given) | > 18 | > 50 | 
6 | CN(CCOc1ccc(CC2SC(=O)NC2=O)cc1)c1ccccn1 (stereo not given) [ROSIGLITAZONE] |  |  | Activity [3]: inactive; Activity [4]: Toxic; Activity [5]: Toxic; Activity [6]: Toxic; Activity [7]: Non-toxic; Activity [8]: Toxic; Activity [9]: Toxic; Activity [10]: Toxic; Activity [11]: Toxic; Activity [12]: Toxic; Activity (3T3-L1): inactive; Activity [13]: Toxic
7 | O=S1(c2ccc(-c3ccccc3)cc2)=N[Se]c2cc(-c3ccccc3)ccc21 (stereo not given) | 0.6 | 1.68 | 
8 | Cc1cccc(S2(=O)=N[Se]c3ccc(C)cc32)c1 (stereo not given) | 2.97 | 8.26 | 
9 | O=S1(c2ccccc2)=N[Se]c2ccccc21 (stereo not given) | > 18 | > 50 | 
10 | CCS1(=O)=N[Se]c2ccccc21 (stereo not given) | > 18 | > 50 | 
11 | O=S1(c2ccc(Cl)cc2)=N[Se]c2cc(Cl)ccc21 (stereo not given) | 14.5 | 40.4 | 
12 | CCCc1ccc(S2(=O)=N[Se]c3cc(CCC)ccc32)cc1 (stereo not given) | 0.76 | 2.11 | 
13 | O=[N+]([O-])c1ccc(S2(=O)=N[Se]c3cc([N+](=O)[O-])ccc32)cc1 (stereo not given) | 0.24 | 0.67 | 
14 | Cc1ccc(S2(=O)=N[Se]c3cc(C)ccc32)cc1 (stereo not given) | 4.52 | 12.6 | 
15 | O=S1(c2cccc(Cl)c2)=N[Se]c2ccc(Cl)cc21 (stereo not given) | 0.23 | 0.64 | 
16 | COc1cccc(S2(=O)=N[Se]c3ccc(OC)cc32)c1 (stereo not given) | 1.18 | 3.28 | 
17 | COC(=O)c1ccc2c(c1)[Se]N=S2(C)=O (stereo not given) | > 18 | > 50 | 
18 | CS1(=O)=N[Se]c2cccc(Cl)c21 (stereo not given) | > 18 | > 50 | 
19 | CS1(=O)=N[Se]c2ccc(Cl)cc21 (stereo not given) | > 18 | > 50 | 
20 | Cc1cc(C)cc(S2(=O)=N[Se]c3c(C)cc(C)cc32)c1 (stereo not given) | 13.7 | 38.2 | 
21 | O=S(=O)(Oc1ccc(S2(=O)=N[Se]c3cc(OS(=O)(=O)C(F)(F)F)ccc32)cc1)C(F)(F)F (stereo not given) | 0.89 | 2.48 | 
22 | O=S1(c2ccc(C(F)(F)F)cc2)=N[Se]c2cc(C(F)(F)F)ccc21 (stereo not given) | 0.62 | 1.73 | 
23 | CS1(=O)=N[Se]c2cc(Cl)ccc21 (stereo not given) | > 18 | > 50 | 
24 | CS1(=O)=N[Se]c2ccccc21 (stereo not given) | > 18 | > 50 | 
25 | Cc1ccc2c(c1)[Se]N=S2(C)=O (stereo not given) | > 18 | > 50 | 
